Test results: ChEMBL document CHEMBL6074681, “High potency 3-carboxy-2-methylbenzofuran pendrin inhibitors as novel diuretics” (Eur J Med Chem, 2025)
One block for each compound: values may come before it. Active and inactive are the calls of the source. No cut-off for these calls is given here.

Key:
Pendrin [1] = target: T1, Pendrin (Homo sapiens, UniProt O43511); experiment: Inhibition of Pendrin (unknown origin) transfected in rat FRT cells assessed as reduction in Cl-/I- ions exchange by YFP fluorescence quenching assay; assay type: cell-based
T1 sequence (O43511 whole entry): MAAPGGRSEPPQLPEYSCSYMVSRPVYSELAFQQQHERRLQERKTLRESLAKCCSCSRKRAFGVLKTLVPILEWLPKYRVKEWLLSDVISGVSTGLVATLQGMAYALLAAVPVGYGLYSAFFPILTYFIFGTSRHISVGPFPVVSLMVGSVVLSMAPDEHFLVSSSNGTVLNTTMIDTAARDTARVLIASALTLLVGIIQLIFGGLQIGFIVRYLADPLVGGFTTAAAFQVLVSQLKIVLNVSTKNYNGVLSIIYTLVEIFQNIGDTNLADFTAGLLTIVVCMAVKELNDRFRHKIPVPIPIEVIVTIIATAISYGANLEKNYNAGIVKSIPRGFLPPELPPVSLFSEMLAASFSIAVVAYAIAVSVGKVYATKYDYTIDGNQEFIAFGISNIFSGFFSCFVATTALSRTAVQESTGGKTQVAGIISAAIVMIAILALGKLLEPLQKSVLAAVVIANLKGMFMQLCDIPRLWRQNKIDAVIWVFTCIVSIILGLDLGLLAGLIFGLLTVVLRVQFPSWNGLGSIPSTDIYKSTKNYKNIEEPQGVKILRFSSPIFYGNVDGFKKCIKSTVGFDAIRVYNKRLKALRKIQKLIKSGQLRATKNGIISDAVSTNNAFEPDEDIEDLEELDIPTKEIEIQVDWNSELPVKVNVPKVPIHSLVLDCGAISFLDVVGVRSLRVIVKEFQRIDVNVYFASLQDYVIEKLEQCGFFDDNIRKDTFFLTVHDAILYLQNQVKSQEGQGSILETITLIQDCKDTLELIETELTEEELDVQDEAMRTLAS

Pendrin (Homo sapiens) [2] = target: T2, Pendrin (Homo sapiens) (UniProt O43511); experiment: Potency index, ratio of PDSinh-A01 IC50 to test compound IC50 for Pendrin (unknown origin) transfected in rat FRT cells assessed as reduction in Cl-/I- ions exchange by YFP fluorescence quenching assay; assay type: cell-based
T2 sequence (whole entry): T1 sequence (O43511 whole entry)

Mus musculus [3] = experiment: Effect on osmolality in mouse model at 10 mg/kg, ip measured for 3 hrs; assay type: functional, organism-based
Pendrin (Homo sapiens) [4] = target: T2, Pendrin (Homo sapiens); experiment: Inhibition of Pendrin (unknown origin) transfected in rat FRT cells at 25 uM by YFP fluorescence quenching assay relative to control; assay type: cell-based
[5] = target: T3, Solute carrier family 26 member 6 (Homo sapiens, UniProt Q9BXS9); experiment: Inhibition of SLC26A6 (unknown origin) transfected in rat FRT cells by YFP fluorescence quenching assay; assay type: cell-based
T3 sequence (Q9BXS9 whole entry): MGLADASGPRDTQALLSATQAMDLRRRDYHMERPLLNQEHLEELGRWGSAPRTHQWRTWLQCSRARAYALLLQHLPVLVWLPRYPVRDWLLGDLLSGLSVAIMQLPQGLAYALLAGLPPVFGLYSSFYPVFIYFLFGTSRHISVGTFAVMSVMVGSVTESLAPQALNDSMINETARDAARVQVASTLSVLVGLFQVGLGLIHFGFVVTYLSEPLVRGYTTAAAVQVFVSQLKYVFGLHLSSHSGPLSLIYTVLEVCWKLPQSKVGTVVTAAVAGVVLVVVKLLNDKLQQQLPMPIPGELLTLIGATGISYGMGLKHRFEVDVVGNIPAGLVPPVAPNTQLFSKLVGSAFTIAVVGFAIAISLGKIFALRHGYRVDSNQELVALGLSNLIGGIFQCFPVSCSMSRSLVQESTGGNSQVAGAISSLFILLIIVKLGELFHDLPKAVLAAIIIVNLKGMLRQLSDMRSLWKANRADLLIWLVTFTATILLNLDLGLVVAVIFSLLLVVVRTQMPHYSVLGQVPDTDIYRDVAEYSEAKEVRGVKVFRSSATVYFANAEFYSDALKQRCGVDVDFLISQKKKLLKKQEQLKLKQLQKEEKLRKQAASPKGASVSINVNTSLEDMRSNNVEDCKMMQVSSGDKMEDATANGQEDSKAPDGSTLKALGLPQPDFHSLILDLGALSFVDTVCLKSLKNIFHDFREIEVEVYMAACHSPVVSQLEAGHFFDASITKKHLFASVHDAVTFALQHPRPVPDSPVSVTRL

[6] = Cytotoxicity against rat FRT cells assessed as cell viability at 10 uM measured after 24 hrs by Alamar blue dye based assay; assay type: toxicity
[7] = Selectivity index, ratio of IC50 for SLC26A6 (unknown origin) transfected in rat FRT cells to IC50 for Pendrin (unknown origin) transfected in rat FRT cells; assay type: cell-based
Mus musculus [8] = experiment: Effect on urine volume in mouse model at 10 mg/kg, ip measured for 3 hrs; assay type: functional, organism-based
Mus musculus [9] = experiment: Potentiation of Furosemide-induced diuretic effect in mouse model at 10 mg/kg, ip measured for 3 hrs relative to control; assay type: functional
Mus musculus [10] = experiment: Effect on osmolality in mouse model at 10 mg/kg, ip measured for 3 hrs in presence of Furosemide; assay type: functional, organism-based
[11] = target: Cystic fibrosis transmembrane conductance regulator (Homo sapiens) (UniProt P13569); experiment: Inhibition of CFTR (unknown origin) transfected in rat FRT cells at 25 uM by YFP fluorescence quenching assay; assay type: cell-based
[12] = target: T4, Solute carrier family 26 member 6 (Homo sapiens) (UniProt Q9BXS9); experiment: Inhibition of SLC26A6 (unknown origin) transfected in rat FRT cells at 25 uM by YFP fluorescence quenching assay; assay type: cell-based
T4 sequence (whole entry): T3 sequence (Q9BXS9 whole entry)

[13] = target: T5, Chloride anion exchanger (Homo sapiens) (UniProt P40879); experiment: Inhibition of SLC26A3 (unknown origin) transfected in rat FRT cells at 25 uM by YFP fluorescence quenching assay; assay type: cell-based
T5 sequence (whole entry): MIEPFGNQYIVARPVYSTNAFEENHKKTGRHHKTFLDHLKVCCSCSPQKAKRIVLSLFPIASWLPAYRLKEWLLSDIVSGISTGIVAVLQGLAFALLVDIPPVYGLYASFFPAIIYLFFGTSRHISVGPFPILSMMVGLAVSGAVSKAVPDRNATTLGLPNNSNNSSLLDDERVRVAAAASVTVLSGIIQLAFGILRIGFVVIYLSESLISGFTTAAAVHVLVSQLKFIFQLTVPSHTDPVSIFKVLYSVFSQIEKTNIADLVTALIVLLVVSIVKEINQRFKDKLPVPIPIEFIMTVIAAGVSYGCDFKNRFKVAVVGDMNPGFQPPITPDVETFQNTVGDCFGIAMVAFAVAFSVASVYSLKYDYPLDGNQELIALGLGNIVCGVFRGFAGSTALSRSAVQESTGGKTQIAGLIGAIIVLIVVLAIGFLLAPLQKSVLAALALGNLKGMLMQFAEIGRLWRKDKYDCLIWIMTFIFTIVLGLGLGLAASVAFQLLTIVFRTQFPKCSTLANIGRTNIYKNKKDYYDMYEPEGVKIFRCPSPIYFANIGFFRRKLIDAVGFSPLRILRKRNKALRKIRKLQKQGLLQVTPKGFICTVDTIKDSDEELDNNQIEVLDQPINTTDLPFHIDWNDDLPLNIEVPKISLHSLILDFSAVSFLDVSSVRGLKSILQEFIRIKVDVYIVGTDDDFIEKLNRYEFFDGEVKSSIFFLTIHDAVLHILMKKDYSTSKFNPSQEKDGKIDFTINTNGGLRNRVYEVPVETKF

Pendrin [14] = target: T1, Pendrin; experiment: Inhibition of Pendrin (unknown origin)

Sequence of Cystic fibrosis transmembrane conductance regulator (Homo sapiens) (P13569 whole entry, looked up): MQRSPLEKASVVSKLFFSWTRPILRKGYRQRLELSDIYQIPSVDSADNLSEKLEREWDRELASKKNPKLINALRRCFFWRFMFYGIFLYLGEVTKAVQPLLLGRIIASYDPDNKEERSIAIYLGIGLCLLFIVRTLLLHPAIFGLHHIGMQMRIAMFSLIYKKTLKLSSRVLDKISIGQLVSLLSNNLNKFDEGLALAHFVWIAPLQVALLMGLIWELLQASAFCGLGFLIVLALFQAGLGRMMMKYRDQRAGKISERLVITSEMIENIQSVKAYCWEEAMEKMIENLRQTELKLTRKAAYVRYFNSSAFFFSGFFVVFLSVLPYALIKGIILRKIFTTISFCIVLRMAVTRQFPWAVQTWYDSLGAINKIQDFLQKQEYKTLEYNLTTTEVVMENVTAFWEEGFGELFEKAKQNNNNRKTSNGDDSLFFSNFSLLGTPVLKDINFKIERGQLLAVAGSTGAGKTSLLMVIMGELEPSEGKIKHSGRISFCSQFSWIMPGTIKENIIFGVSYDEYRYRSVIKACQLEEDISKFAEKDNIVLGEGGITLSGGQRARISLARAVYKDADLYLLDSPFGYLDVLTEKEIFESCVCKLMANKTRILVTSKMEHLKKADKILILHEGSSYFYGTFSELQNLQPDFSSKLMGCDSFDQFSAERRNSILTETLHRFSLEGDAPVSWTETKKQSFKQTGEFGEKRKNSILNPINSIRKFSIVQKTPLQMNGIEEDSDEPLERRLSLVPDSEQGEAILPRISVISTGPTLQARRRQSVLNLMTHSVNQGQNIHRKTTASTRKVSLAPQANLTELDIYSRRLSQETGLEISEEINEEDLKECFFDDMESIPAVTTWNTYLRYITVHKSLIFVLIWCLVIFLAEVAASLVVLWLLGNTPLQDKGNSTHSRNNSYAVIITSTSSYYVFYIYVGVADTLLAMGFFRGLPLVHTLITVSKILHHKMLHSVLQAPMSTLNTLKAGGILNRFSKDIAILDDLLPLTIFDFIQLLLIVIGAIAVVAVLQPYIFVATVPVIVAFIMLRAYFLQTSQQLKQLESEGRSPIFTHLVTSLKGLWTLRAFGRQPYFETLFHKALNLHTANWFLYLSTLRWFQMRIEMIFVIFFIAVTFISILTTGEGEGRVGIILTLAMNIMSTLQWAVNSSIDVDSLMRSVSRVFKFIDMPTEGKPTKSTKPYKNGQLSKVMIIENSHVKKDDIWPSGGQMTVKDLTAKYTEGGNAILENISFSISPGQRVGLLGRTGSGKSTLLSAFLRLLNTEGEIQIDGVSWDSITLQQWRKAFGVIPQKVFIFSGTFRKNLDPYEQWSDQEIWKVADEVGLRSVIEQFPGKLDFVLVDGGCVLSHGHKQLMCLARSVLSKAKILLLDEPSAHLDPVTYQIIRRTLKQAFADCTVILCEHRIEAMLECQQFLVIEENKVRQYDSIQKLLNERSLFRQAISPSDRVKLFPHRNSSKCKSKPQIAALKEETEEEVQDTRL

Ratio IC50 (Pendrin (Homo sapiens) [2]): 3 | IC50 (Pendrin [1]): 4.1 µM
SMILES: Cc1oc2ccc(OCc3ccc(Br)cc3)cc2c1C(=O)O

IC50 (Pendrin [1]): 5 µM
SMILES: Cc1oc2ccc(OCc3ccc(Cl)cc3)cc2c1C(=O)O

inhibition (Pendrin (Homo sapiens) [4]): 100% | IC50 [5]: 10 µM | inhibition [11]: Active; Exhibited Minimal Effect | inhibition [12]: Active | IC50 (Pendrin [1]): 0.48 µM | inhibition [13]: inactive
SMILES: Cc1oc2ccc(OCc3cc(F)ccc3Cl)cc2c1C(=O)O
Activity (Mus musculus [3]): No effect | Activity [6]: Non-toxic | Ratio IC50 [7]: 20 | Activity (Mus musculus [8]): No effect | Activity (Mus musculus [9]): 45% | Activity (Mus musculus [10]): No effect

IC50 (Pendrin [1]): 8.2 µM
SMILES: Cc1oc2ccc(OCc3cccc(Br)c3)cc2c1C(=O)O

IC50 (Pendrin [14]): 12.5 µM
SMILES: Cn1nc(COc2cccc(F)c2)c2c1CCN(C(=O)Nc1ccc(Cl)cc1)C2

Continued, compound first:

SMILES: Cc1oc2ccc(OCc3ccccc3)cc2c1C(=O)O
IC50 (Pendrin [1]): 3.1 µM

SMILES: Cc1ccccc1COc1ccc2oc(C)c(C(=O)O)c2c1
IC50 (Pendrin [1]): 1.44 µM

SMILES: Cc1oc2ccc(OCc3ccccc3Cl)cc2c1C(=O)O
inhibition (Pendrin (Homo sapiens) [4]): 100% | Activity [6]: Non-toxic | inhibition [11]: Active; Exhibited Minimal Effect | inhibition [12]: Active; Exhibited Minimal Inhibition | inhibition [13]: inactive

SMILES: Cc1oc2ccc(OCc3cccc(Cl)c3)cc2c1C(=O)O
IC50 (Pendrin [1]): 4.8 µM
